Reference: ChEMBL document CHEMBL1201862, “PubChem BioAssay data set” (2004)
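Five concentrations, 48 hours, 96-well plates. The concentration for 50% growth inhibition is given as GI50.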 The source made the active and inactive calls. No stated cut-off is given here; in the data, active = GI50 up to about 1.1 µM and inactive = higher.

Key:
Experiment in all cases: NCI anticancer screen, dose series, 48 h
[1] = test system: 786-0
[2] = test system: A498
[3] = test system: A549
[4] = test system: ACHN
[5] = test system: BT-549
[6] = test system: CAKI-1
[7] = test system: CCRF-CEM
[8] = test system: COLO 205
[9] = test system: DU-145
[10] = test system: EKVX
[11] = test system: HCC 2998
[12] = test system: HCT-116
[13] = test system: HCT-15
[14] = test system: HL-60
[15] = test system: HOP-62
[16] = test system: HOP-92
[17] = test system: HT-29
[18] = test system: Hs-578T
[19] = test system: IGROV-1
[20] = test system: K562
[21] = test system: KM12
[22] = test system: LOX IMVI
[23] = test system: M14
[24] = test system: MCF7
[25] = test system: MDA-MB-231
[26] = test system: MDA-MB-435
[27] = test system: MDA-N
[28] = test system: MOLT-4
[29] = test system: Malme-3M
[30] = test system: NCI-H23
[31] = test system: NCI-H460
[32] = test system: NCI-H522
[33] = test system: NCI/ADR-RES
[34] = test system: OVCAR-3
[35] = test system: OVCAR-4
[36] = test system: OVCAR-5
[37] = test system: OVCAR-8
[38] = test system: RPMI-8226
[39] = test system: RXF 393
[40] = test system: SF-268
[41] = test system: SF-295
[42] = test system: SF-539
[43] = test system: SK-MEL-28
[44] = test system: SK-MEL-2
[45] = test system: SK-MEL-5
[46] = test system: SK-OV-3
[47] = test system: SN12C
[48] = test system: SNB-19
[49] = test system: SNB-75
[50] = test system: SR
[51] = test system: SW-620
[52] = test system: T47D
[53] = test system: TK-10
[54] = test system: U-251
[55] = test system: UACC-257
[56] = test system: UACC-62
[57] = test system: UO-31
[58] = test system: NCI-H226
[59] = test system: PC-3

**Q.** Which GI50 [1] does the source give for `CN(C)C(=O)O/N=C1/C(=C2/C(=O)Nc3ccccc32)Nc2ccccc21` here?
**A.** Its GI50 is 6.98 µM (inactive).

**Q.** What about the GI50 [2] of the same compound?
**A.** The GI50 was 1.5 µM (inactive).

**Q.** And the GI50 [3]?
**A.** Its GI50 is 20.5 µM (inactive).

**Q.** And the GI50 [4]?
**A.** Its GI50 is 19.2 µM (inactive).

**Q.** And the GI50 [5]?
**A.** Its GI50 is 13.4 µM (inactive).

**Q.** And the GI50 [6]?
**A.** Its GI50 is 0.883 µM (active).

**Q.** What about the GI50 [7] of the same compound?
**A.** Its GI50 is > 100 µM (inactive).

**Q.** And the GI50 [8]?
**A.** The GI50 was > 100 µM (inactive).

**Q.** And the GI50 [9]?
**A.** The GI50 was 8.83 µM (inactive).

**Q.** And the GI50 [10]?
**A.** Its GI50 is 4.83 µM (inactive).

**Q.** What about the GI50 [11] of the same compound?
**A.** The GI50 was 38.5 µM (inactive).

**Q.** And the GI50 [12]?
**A.** The GI50 was 19.1 µM (inactive).

**Q.** What about the GI50 [13] of the same compound?
**A.** The GI50 was 19.2 µM.

**Q.** What about the GI50 [14] of the same compound?
**A.** Its GI50 is > 100 µM (inactive).

**Q.** And the GI50 [15]?
**A.** The GI50 was 14.1 µM (inactive).

**Q.** And the GI50 [16]?
**A.** Its GI50 is 6.21 µM (inactive).

**Q.** And the GI50 [17]?
**A.** Its GI50 is 38.8 µM (inactive).

**Q.** What about the GI50 [18] of the same compound?
**A.** Its GI50 is 9.35 µM (inactive).

**Q.** What about the GI50 [19] of the same compound?
**A.** Its GI50 is 0.711 µM (active).

**Q.** And the GI50 [20]?
**A.** The GI50 was 27.7 µM (inactive).

**Q.** What about the GI50 [21] of the same compound?
**A.** Its GI50 is 0.304 µM (active).

**Q.** And the GI50 [22]?
**A.** The GI50 was 86.3 µM (inactive).

**Q.** What about the GI50 [23] of the same compound?
**A.** The GI50 was 50.1 µM (inactive).

**Q.** And the GI50 [24]?
**A.** The GI50 was 17 µM (inactive).

**Q.** What about the GI50 [25] of the same compound?
**A.** Its GI50 is 11.6 µM (inactive).

**Q.** And the GI50 [26]?
**A.** Its GI50 is 50.7 µM (inactive).

**Q.** What about the GI50 [27] of the same compound?
**A.** The GI50 was 46.2 µM (inactive).

**Q.** And the GI50 [28]?
**A.** Its GI50 is 10.4 µM (inactive).

**Q.** What about the GI50 [29] of the same compound?
**A.** The GI50 was 4.25 µM (inactive).

**Q.** What about the GI50 [30] of the same compound?
**A.** The GI50 was 28.7 µM (inactive).

**Q.** And the GI50 [31]?
**A.** Its GI50 is 7.96 µM (inactive).

**Q.** What about the GI50 [32] of the same compound?
**A.** The GI50 was 8.75 µM (inactive).

**Q.** And the GI50 [33]?
**A.** Its GI50 is 21.9 µM (inactive).

**Q.** And the GI50 [34]?
**A.** The GI50 was 8.99 µM (inactive).

**Q.** And the GI50 [35]?
**A.** The GI50 was 6.81 µM (inactive).

**Q.** And the GI50 [36]?
**A.** The GI50 was 31 µM (inactive).

**Q.** What about the GI50 [37] of the same compound?
**A.** The GI50 was 9.75 µM (inactive).

**Q.** What about the GI50 [38] of the same compound?
**A.** The GI50 was > 100 µM (inactive).

**Q.** What about the GI50 [39] of the same compound?
**A.** Its GI50 is 1.57 µM (inactive).

**Q.** What about the GI50 [40] of the same compound?
**A.** Its GI50 is 6.68 µM (inactive).

**Q.** And the GI50 [41]?
**A.** The GI50 was 19.1 µM (inactive).

**Q.** And the GI50 [42]?
**A.** Its GI50 is 9.77 µM (inactive).

**Q.** And the GI50 [43]?
**A.** The GI50 was 36.5 µM (inactive).

**Q.** What about the GI50 [44] of the same compound?
**A.** The GI50 was 8.53 µM (inactive).

**Q.** What about the GI50 [45] of the same compound?
**A.** The GI50 was 24.2 µM (inactive).

**Q.** And the GI50 [46]?
**A.** Its GI50 is 11.8 µM (inactive).

**Q.** And the GI50 [47]?
**A.** The GI50 was 22.8 µM (inactive).

**Q.** And the GI50 [48]?
**A.** The GI50 was 10.9 µM (inactive).

**Q.** What about the GI50 [49] of the same compound?
**A.** The GI50 was 2.45 µM (inactive).

**Q.** And the GI50 [50]?
**A.** Its GI50 is 4.89 µM (inactive).

**Q.** What about the GI50 [51] of the same compound?
**A.** The GI50 was 53.7 µM (inactive).

**Q.** What about the GI50 [52] of the same compound?
**A.** Its GI50 is 2.76 µM (inactive).

**Q.** And the GI50 [53]?
**A.** Its GI50 is 17.4 µM (inactive).

**Q.** What about the GI50 [54] of the same compound?
**A.** Its GI50 is 11.7 µM (inactive).

**Q.** And the GI50 [55]?
**A.** The GI50 was 27.2 µM (inactive).

**Q.** And the GI50 [56]?
**A.** The GI50 was 16.1 µM (inactive).

**Q.** And the GI50 [57]?
**A.** Its GI50 is 21.6 µM (inactive).

**Q.** Which results are given for `NC(Cc1ccc(B(O)O)cc1)C(=O)NC(CO)CO` (stereo not given)?
**A.** GI50 [1]: > 100 µM (inactive); GI50 [3]: > 100 µM (inactive); GI50 [4]: > 100 µM (inactive); GI50 [5]: > 100 µM (inactive); GI50 [6]: > 100 µM (inactive); GI50 [7]: > 100 µM (inactive); GI50 [8]: > 100 µM (inactive); GI50 [10]: > 100 µM (inactive); GI50 [11]: > 100 µM (inactive); GI50 [12]: > 100 µM (inactive); GI50 [13]: > 100 µM; GI50 [15]: > 100 µM (inactive); GI50 [17]: > 100 µM (inactive); GI50 [18]: > 100 µM (inactive); GI50 [19]: > 100 µM (inactive); GI50 [20]: > 100 µM (inactive); GI50 [21]: > 100 µM (inactive); GI50 [22]: > 100 µM (inactive); GI50 [23]: > 100 µM (inactive); GI50 [25]: > 100 µM (inactive); GI50 [26]: > 100 µM (inactive); GI50 [27]: > 100 µM (inactive); GI50 [28]: > 100 µM (inactive); GI50 [29]: > 100 µM (inactive); GI50 [58]: > 100 µM (inactive); GI50 [30]: > 100 µM (inactive); GI50 [31]: > 100 µM (inactive); GI50 [32]: > 100 µM (inactive); GI50 [33]: > 100 µM (inactive); GI50 [34]: > 100 µM (inactive); GI50 [35]: > 100 µM (inactive); GI50 [36]: > 100 µM (inactive); GI50 [37]: > 100 µM (inactive); GI50 [59]: > 100 µM (inactive); GI50 [38]: > 100 µM (inactive); GI50 [39]: 67.6 µM (inactive); GI50 [40]: > 100 µM (inactive); GI50 [41]: > 100 µM (inactive); GI50 [42]: > 100 µM (inactive); GI50 [43]: > 100 µM (inactive); GI50 [44]: > 100 µM (inactive); GI50 [45]: > 100 µM (inactive); GI50 [46]: > 100 µM (inactive); GI50 [47]: > 100 µM (inactive); GI50 [48]: > 100 µM (inactive); GI50 [49]: > 100 µM (inactive); GI50 [50]: > 100 µM (inactive); GI50 [51]: > 100 µM (inactive); GI50 [53]: > 100 µM (inactive); GI50 [54]: > 100 µM (inactive); GI50 [55]: > 100 µM (inactive); GI50 [56]: > 100 µM (inactive); GI50 [57]: > 100 µM (inactive)
